# Test results from ChEMBL document CHEMBL5223131, “A first-in-class clinical G-quadruplex-targeting drug. The bench-to-bedside translation of the fluoroquinolone QQ58 to CX-5461 (Pidnarulex)” (Bioorg Med Chem Lett, 2022).
# Active and inactive are the calls of the source. The rule behind the calls is not given here.
# Assays:
# [1] = biological target: T1, DNA topoisomerase II (Homo sapiens) (UniProt P11388+Q02880); test: Inhibition of human Top2 assessed as decrease in enzyme mediated DNA cleavage at site A at 0.5 to 10 uM; format: protein assay; settings: dose 0.5-10 µM
# [2] = biological target: DNA topoisomerase 2-alpha (Homo sapiens) (UniProt P11388); test: Inhibition of human Top2 assessed as decrease in intensity of decatenated DNA using catenated KDNA at 2 to 50 uM; settings: dose 2-50 µM
# Sequence of DNA topoisomerase 2-alpha (Homo sapiens) (P11388 whole entry): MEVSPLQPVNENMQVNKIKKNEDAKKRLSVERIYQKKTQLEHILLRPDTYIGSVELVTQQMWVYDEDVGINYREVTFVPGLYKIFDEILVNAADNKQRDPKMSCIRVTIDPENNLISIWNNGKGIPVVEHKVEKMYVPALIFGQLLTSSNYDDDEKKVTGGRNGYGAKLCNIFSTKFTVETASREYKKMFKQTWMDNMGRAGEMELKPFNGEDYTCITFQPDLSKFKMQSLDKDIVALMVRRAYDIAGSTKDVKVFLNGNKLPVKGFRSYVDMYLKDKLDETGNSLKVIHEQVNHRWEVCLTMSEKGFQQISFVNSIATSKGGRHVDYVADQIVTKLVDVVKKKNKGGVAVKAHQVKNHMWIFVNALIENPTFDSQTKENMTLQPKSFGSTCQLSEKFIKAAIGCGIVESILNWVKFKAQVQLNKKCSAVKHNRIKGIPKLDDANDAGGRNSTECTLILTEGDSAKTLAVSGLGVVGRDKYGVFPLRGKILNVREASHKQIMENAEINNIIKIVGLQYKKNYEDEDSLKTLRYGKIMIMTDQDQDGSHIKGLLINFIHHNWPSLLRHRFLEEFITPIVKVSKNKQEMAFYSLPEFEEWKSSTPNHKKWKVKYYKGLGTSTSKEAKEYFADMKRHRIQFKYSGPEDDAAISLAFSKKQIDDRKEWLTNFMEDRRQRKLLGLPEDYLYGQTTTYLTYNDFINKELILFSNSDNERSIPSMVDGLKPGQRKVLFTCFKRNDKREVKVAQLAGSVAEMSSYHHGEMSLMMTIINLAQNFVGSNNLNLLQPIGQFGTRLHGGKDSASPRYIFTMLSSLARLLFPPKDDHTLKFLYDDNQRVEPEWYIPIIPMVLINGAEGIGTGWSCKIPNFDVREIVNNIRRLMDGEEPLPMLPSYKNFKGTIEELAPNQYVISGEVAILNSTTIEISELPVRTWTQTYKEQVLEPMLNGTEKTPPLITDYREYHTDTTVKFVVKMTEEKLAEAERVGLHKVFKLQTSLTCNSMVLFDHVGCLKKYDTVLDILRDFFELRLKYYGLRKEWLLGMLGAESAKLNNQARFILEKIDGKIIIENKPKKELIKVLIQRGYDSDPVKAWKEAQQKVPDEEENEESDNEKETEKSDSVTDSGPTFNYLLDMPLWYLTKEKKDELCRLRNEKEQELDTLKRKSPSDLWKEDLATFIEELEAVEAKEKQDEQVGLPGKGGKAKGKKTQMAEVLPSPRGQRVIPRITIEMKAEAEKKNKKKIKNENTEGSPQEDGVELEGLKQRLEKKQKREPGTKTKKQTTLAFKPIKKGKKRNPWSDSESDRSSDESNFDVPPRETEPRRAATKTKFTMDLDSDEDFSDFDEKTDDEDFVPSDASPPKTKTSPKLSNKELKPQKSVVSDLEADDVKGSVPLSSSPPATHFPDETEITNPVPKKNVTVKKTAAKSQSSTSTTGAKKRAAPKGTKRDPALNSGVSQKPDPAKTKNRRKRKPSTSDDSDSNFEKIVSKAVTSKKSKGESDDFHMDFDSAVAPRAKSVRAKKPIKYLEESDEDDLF
# [3] = biological target: T1, DNA topoisomerase II (Homo sapiens); test: Inhibition of human Top2 assessed as decrease in enzyme mediated DNA cleavage at site A at low concentration; format: protein assay
# [4] = biological target: T1, DNA topoisomerase II (Homo sapiens); test: Inhibition of human Top2 assessed as decrease in enzyme mediated DNA cleavage at site A at high concentration; format: protein assay
# [5] = biological target: T1, DNA topoisomerase II (Homo sapiens); test: Inhibition of human Top2 assessed as decrease in intensity of decatenated DNA using catenated KDNA at 0.5 to 10 uM; format: protein assay; settings: dose 0.5-10 µM
Compound,Activity [1],fold change (FC) [2],Activity [3],Activity [4],Activity [5]
N[C@H]1CCN(c2c(F)cc3c(=O)c(C(=O)O)cn4c3c2Oc2cc3c(cc2-4)oc2ccccc23)C1,Active,5,–,–,–
N[C@H]1CCN(c2c(F)cc3c(=O)c(C(=O)O)cn4c3c2Oc2ccccc2-4)C1,–,–,Active,inactive,Active
